Patent US8435548B2, “Peptide derivatives and cosmetic composition comprising the same” (Bio-FD&C Co., Ltd, priority 2009, dated 2013)
Primed or numbered codes have the meaning given here. Where no end group is shown, it is not given here. Galloyl′ = not defined here

Columns and labels:
[1] = Free radical scavenging activity test (DPPH method, anti-oxidative activity); format: physicochemical; conditions: 30 min, absorbance 517 nm
Protocol: A representative antioxidant, vitamin C (Sigma) was used as a positive control, and the galloyl-tetrapeptide and digalloyl-tetrapeptide according to the present invention were mixed with 1,1-diphenyl-2-picrylhydrazyl (DPPH, Sigma) producing free radicals in ethanol to determine the reduced amounts of the produced free radicals. […] The resulting solution was vigorously vortexed for 10 sec, kept at a dark cold place for 30 min, and then its absorbance was measured at 517 nm by ELISA method. The anti-oxidative activity (free radical scavenging activity) was calculated according to the following formula 2 by using the absorbance of pure water as a control, and expressed as a percentage. [formula]

[2] = system: mushroom tyrosinase; test: Inhibition effect on tyrosinase activity; format: biochemical; conditions: test compound 100 μM; L-tyrosine substrate; pH 6.8; 37° C., 20 min; absorbance 490 nm
Protocol: Inhibition effects of the prepared compounds were measured by the known method (see: Pomerantz S. H., J. Biochem., 24:161-168, 1966).
The test compounds were prepared to a final concentration of 100 μM and put into a 96-well plate, and 220 μl of 100 mM sodium phosphate buffer (pH 6.8) and 40 μl of 1.5 mM L-tyrosine solution were added thereto. The resulting mixture was reacted with the addition of 20 μl of mushroom tyrosinase (1,500 units/ml, Sigma) at 37° C. for 20 min. 0.2 ml of the reacted solution was transferred to a 96-well plate, and its absorbance was measured at 490 nm with a microplate reader to obtain the inhibition effect on tyrosinase.
The tyrosinase inhibition effect was calculated according to the following formula 1 by using the absorbance of pure water as a control, and expressed as a percentage.

Compound	Free radical scavenging activity (%) ([1]; 10 uM)	Free radical scavenging activity (%) ([1]; 50 uM)	Free radical scavenging activity (%) ([1]; 100 uM)	Inhibition (%) [2]
O=C1O[C@H]([C@@H](O)CO)C(O)=C1O [Vitamin C]	55.2%	68.3%	72.5%	–
Galloyl-Tripeptide(Tyrosyl-Histidyl-Tyrosine) ({Galloyl′}-Tyr-His-Tyr) [Comparative Example 1, soy bean-derived peptide connected to gallic acid]	–	–	–	15%
Digalloyl-Tetrapeptide(Lysyl-Tyrosyl-Histidyl-Tyrosine) (KYHY; also: digalloyl: two galloyl groups, sites not given here) [Comparative Example 2, soy bean-derived peptide connected to gallic acid]	–	–	–	21%
Galloyl-Tetrapeptide(Lysyl-Glutamyl-Cysteinyl-Glycine) [Example 1]	65.8%	78.2%	78.1%	40%
Galloyl-Tripeptide(Glutamyl-Cysteinyl-Glycine) [Example 3]	–	–	–	34%
Digalloyl-Tetrapeptide(Lysyl-Glutamyl-Cysteinyl-Glycine) [Example 2]	82.1%	82.0%	83.5%	52%
O=C(O)c1cc(O)c(O)c(O)c1 [Gallic acid]	63.1%	70.4%	75.1%	10%
